Source: PMC10208570, “Peptidomimetic antibiotics disrupt the lipopolysaccharide transport bridge of drug-resistant Enterobacteriaceae” (Science Advances, 2023)

How the values were obtained:
[1] = test system: E. coli ATCC 25922 (parent / WT); assay: microbe, parasite or virus in culture; conditions: Table S9 panel; WT
Procedure, shortened: (§1)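 Following CLSI procedures, minimum inhibitory concentrations are measured; serial passage experiments select resistant mutants, whose MICs are determined before whole-genome sequencing and bioinformatic analysis.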

[2] = test system: E. coli ATCC 25922 LptA Q62L mutant; assay: microbe, parasite or virus in culture
Procedure, shortened: as §1

[3] = test system: Escherichia coli ATCC 25922 KdsD mutant; assay: microbe, parasite or virus in culture; conditions: Table S9 panel; other mutation
Procedure, shortened: as §1

[4] = test system: Escherichia coli ATCC 25922 LptA E84D mutant; assay: microbe, parasite or virus in culture; conditions: Table S9 panel
Procedure, shortened: as §1

[5] = test system: K. pneumoniae ATCC 43816 (parent / WT); assay: microbe, parasite or virus in culture
Procedure, shortened: as §1

[6] = test system: K. pneumoniae ATCC 43816 LptA Q62L mutant; assay: microbe, parasite or virus in culture
Procedure, shortened: as §1

[7] = test system: K. pneumoniae NCTC 13443 (NDM-1) (parent / WT); assay: microbe, parasite or virus in culture; conditions: Table S9 panel; WT
Procedure, shortened: as §1

[8] = test system: K. pneumoniae NCTC 13443 (NDM-1) LptA Q62L mutant; assay: microbe, parasite or virus in culture
Procedure, shortened: as §1

[9] = test system: Klebsiella pneumoniae ATCC 43816 LapB mutant; assay: microbe, parasite or virus in culture; conditions: Table S9 panel; other mutation
Procedure, shortened: as §1

[10] = test system: Klebsiella pneumoniae ATCC 43816 LptA I36N mutant; assay: microbe, parasite or virus in culture; conditions: Table S9 panel
Procedure, shortened: as §1

[11] = test system: Klebsiella pneumoniae ATCC 43816 LptA I36S mutant; assay: microbe, parasite or virus in culture; conditions: Table S9 panel
Procedure, shortened: as §1

[12] = test system: Klebsiella pneumoniae ATCC 43816 LptA L116Q mutant; assay: microbe, parasite or virus in culture; conditions: Table S9 panel
Procedure, shortened: as §1

[13] = test system: Klebsiella pneumoniae ATCC 43816 PglJ, PhnJ, ThiH mutant; assay: microbe, parasite or virus in culture; conditions: Table S9 panel; other mutation
Procedure, shortened: as §1

[14] = test system: Klebsiella pneumoniae NCTC 13443 LptA I36S mutant; assay: microbe, parasite or virus in culture; conditions: Table S9 panel
Procedure, shortened: as §1

[15] = test system: Klebsiella pneumoniae NCTC 13443 LpxC, LpxD mutant; assay: microbe, parasite or virus in culture; conditions: Table S9 panel; other mutation
Procedure, shortened: as §1

[16] = test system: Klebsiella pneumoniae NCTC 13443 YejM mutant; assay: microbe, parasite or virus in culture; conditions: Table S9 panel; other mutation
Procedure, shortened: as §1

[17] = test system: K. pneumoniae 968733 (CST-R); assay: MIC assay (CLSI); assay type: cell-based, Klebsiella pneumoniae; conditions: CLSI method; colistin-resistant strain
Experimental: (§2) MIC assays [Clinical and Laboratory Standards Institute (CLSI) methodology] and serial passage studies were performed as described by Luther et al. ([6]). […] Resistant mutants were isolated, and their MIC values were determined and sent to Microbes NG (Birmingham, United Kingdom) for whole-genome sequencing and bioinformatic analysis.

[18] = test system: panel of 121 Enterobacteriaceae including CRE, MDR, and XDR isolates; assay: organism not typed; conditions: CLSI microdilution method; 121 isolates
Experimental: as §2

[19] = test system: Enterobacteriaceae (CS, Col-S) (n=22); assay type: cell-based; conditions: CLSI microdilution; minimum and maximum MIC of the panel; carbapenem sensitive, colistin sensitive
Experimental: as §2

[20] = test system: E. coli; assay type: cell-based, Escherichia coli; conditions: serial passage in broth at sub-MIC and multiples of the MIC
Experimental: as §2
(§3) Fig. S8. Resistance development studies by serial passage. Broth containing a single antibiotic at sub-MIC and multiples of the MIC were inoculated with bacteria. Drug concentrations were […]
(§4) day 1 and 2 of passaging.
(§5) (1 picture or pasted object on this page, not shown here)

[21] = test system: K. pneumoniae; assay type: cell-based, Klebsiella pneumoniae; conditions: serial passage in broth at sub-MIC and multiples of the MIC
Experimental: as §2, §3, §4, §5

[22] = CLSI method, clone harboring LptA Q62L

## Colistin
[1]
  MIC Escherichia coli ATCC 25922 WT: 0.25 µg/mL
[2]; [22]
  MIC E. coli ATCC 25922 Q62L mutant: 0.25 micrograms per milliliter
[2]; Table S9 panel
  MIC Escherichia coli ATCC 25922 LptA Q62L (7x): 0.13 µg/mL
[3]
  MIC Escherichia coli ATCC 25922 KdsD (2x): 0.25 µg/mL
[4]
  MIC Escherichia coli ATCC 25922 LptA E84D (1x): 0.25 µg/mL
[5]; CLSI method, parent strain
  MIC K. pneumoniae ATCC 43816 Parent: 0.125 micrograms per milliliter
[5]; Table S9 panel, WT
  MIC Klebsiella pneumoniae ATCC 43816 WT: 0.13 µg/mL
[6]; [22]
  MIC K. pneumoniae ATCC 43816 Q62L mutant: 0.125 micrograms per milliliter
[6]; Table S9 panel
  MIC Klebsiella pneumoniae ATCC 43816 LptA Q62L (4x): 0.13 µg/mL
[7]
  MIC Klebsiella pneumoniae NCTC 13443 WT: 0.25 µg/mL
[8]; [22]
  MIC K. pneumoniae NCTC 13443 (NDM-1) Q62L mutant: 0.125 micrograms per milliliter
[8]; Table S9 panel
  MIC Klebsiella pneumoniae NCTC 13443 LptA Q62L (5x): 0.13 µg/mL
[9]
  MIC Klebsiella pneumoniae ATCC 43816 LapB (1x): 0.13 µg/mL
[10]
  MIC Klebsiella pneumoniae ATCC 43816 LptA I36N (1x): ≤ 0.06 µg/mL
[11]
  MIC Klebsiella pneumoniae ATCC 43816 LptA I36S (1x): 0.13 µg/mL
[12]
  MIC Klebsiella pneumoniae ATCC 43816 LptA L116Q (1x): 0.13 µg/mL
[13]
  MIC Klebsiella pneumoniae ATCC 43816 PglJ, PhnJ, ThiH (1x): 0.13 µg/mL
[14]
  MIC Klebsiella pneumoniae NCTC 13443 LptA I36S (2x): 0.13 µg/mL
[15]
  MIC Klebsiella pneumoniae NCTC 13443 LpxC, LpxD (1x): 0.25 µg/mL
[16]
  MIC Klebsiella pneumoniae NCTC 13443 YejM (1x): 0.25 µg/mL
[17]
  MIC K. pneumoniae 968733 (CST-R) Parent: >8 micrograms per milliliter
[18]
  MIC50 (n=121): 0.13 µg/mL
  MIC90 (n=121): > 8 µg/mL
[19]
  MIC range Enterobacteriaceae (CS, Col-S) (n=22): 0.06 to 0.5 µg/mL
[20]
  Development of resistance, day of passaging, E. coli: 5 to 7 days
[21]
  Development of resistance, day of passaging, K. pneumoniae: 1 to 3 days
